According to patent US7674819B2 (Warner-Lambert Company LLC, priority 2005, dated 2010):
Numbering of substitutions follows the chain as printed. Read-outs that look alike come from different tables or passages of the source.

Legend:
androgen receptor = biological target: T1, androgen receptor (Homo sapiens, UniProt P10275); assay: AR Antagonist Cell Assay (MDA-MB453-MMTV clone 54-19, luciferase reporter); type: cell-based; conditions: inhibition of induction by DHT (final concentration at 100 μM), 17 hr, compound 0.32-1000 nM, mean of multiple tests
T1 sequence (P10275 1-920 Q868H): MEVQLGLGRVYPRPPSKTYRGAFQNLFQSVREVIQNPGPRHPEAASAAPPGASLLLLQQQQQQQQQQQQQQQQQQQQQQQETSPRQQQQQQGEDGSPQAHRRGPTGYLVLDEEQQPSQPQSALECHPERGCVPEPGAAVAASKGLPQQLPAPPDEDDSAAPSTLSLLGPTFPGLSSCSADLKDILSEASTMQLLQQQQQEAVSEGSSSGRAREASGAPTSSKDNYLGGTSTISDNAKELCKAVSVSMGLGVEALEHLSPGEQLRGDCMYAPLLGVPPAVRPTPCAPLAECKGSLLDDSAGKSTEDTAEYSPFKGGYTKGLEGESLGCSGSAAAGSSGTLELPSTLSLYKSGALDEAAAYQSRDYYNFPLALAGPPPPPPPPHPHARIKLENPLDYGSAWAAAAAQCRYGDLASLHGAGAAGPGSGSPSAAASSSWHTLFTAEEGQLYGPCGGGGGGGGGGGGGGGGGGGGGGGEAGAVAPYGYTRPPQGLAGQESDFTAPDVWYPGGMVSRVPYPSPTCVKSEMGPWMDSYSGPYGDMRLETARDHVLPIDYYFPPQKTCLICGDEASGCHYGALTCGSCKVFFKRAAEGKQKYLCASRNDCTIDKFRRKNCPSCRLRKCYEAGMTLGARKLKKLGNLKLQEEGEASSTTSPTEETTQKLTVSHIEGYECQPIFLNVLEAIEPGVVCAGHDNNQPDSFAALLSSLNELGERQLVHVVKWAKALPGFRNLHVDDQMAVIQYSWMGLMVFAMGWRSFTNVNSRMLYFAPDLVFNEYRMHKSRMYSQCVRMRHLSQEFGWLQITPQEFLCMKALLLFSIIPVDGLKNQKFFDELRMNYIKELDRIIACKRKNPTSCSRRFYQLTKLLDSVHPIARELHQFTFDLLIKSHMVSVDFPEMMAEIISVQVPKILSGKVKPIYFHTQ
How it was run: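 MDA-MB453 breast tumour cells stably carrying an ARE-containing MMTV promoter driving firefly luciferase, plated overnight at 37° C in charcoal-treated serum medium. DHT added (final […]) and incubated 17 hr at 37° C. Luminescence read after adding luciferase buffer; values are means of multiple tests.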

hAR = biological target: T2, hAR (Homo sapiens, UniProt P10275); assay: Competitive binding of 3H-DHT to baculovirus/Sf9 generated hAR extracts; conditions: one hour at 4° C., mean of multiple tests
T2 sequence (P10275 1-920): T1 sequence (P10275 1-920 Q868H) with H868Q
How it was run: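 Baculovirus/Sf9-expressed hAR extract incubated with test compound, hydroxylapatite and 1 nM 3H-DHT tracer for 1 h at 4° C, then washed free of unbound tracer. Affinity given as concentration inhibiting half of maximal 3H-DHT binding.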

spinal BMD = conditions: after 7 years of treatment; cited from earlier work
[1] = IC50, concentration at which one half of maximum binding of 1 nM 3H-DHT to hAR is inhibited
[2] = concentration at which one half of maximum binding of 1 nM 3H-DHT to hAR is inhibited, read-out: IC50

**Q.** For C[C@@H](c1ccc(F)cc1)N1CC(C)(C)[C@@H](Oc2ccc(C#N)c(C(F)(F)F)c2)C1=O (mixture of isomers) [Example 71, (±)-4-{1-[1-(4-Fluoro-phenyl)-ethyl]-4,4-dimethyl-2-oxo-pyrrolidin-3-yloxy}-2-trifluoromethyl-benzonitrile], which melting point is on record?
**A.** Its melting point is 114 to 115 °C.

**Q.** For CSc1ccc(CN2CC(C)(C)C(Oc3ccc(C#N)c(C(F)(F)F)c3)C2=O)cc1 (racemic) [Example 22, (±)-4-[4,4-Dimethyl-1-(4-methylsulfanyl-benzyl)-2-oxo-pyrrolidin-3-yloxy]-2-trifluoromethyl-benzonitrile], which melting point is on record?
**A.** The melting point was 44.1 to 44.8 °C.

**Q.** What about the IC50 (androgen receptor) of the same compound?
**A.** Its IC50 is 99 nM.

**Q.** What about the IC50 (hAR; [1]) of the same compound?
**A.** The IC50 was 40 nM.

**Q.** What does the source list for C[C@@H](c1ccc(F)cc1)N1CC(C)(C)[C@@H](Oc2ccc(C#N)c(C(F)(F)F)c2)C1=O (racemic) [Example 70, (±)-4-{1-[1-(4-Fluoro-phenyl)-ethyl]-4,4-dimethyl-2-oxo-pyrrolidin-3-yloxy}-2-trifluoromethyl-benzonitrile]?
**A.** melting point: 82 to 83 °C; IC50 (androgen receptor): 85 nM; IC50 (hAR; [1]): 52 nM

**Q.** Which melting point does the source give for CC(c1cccc(O)c1)N1CC(C)(C)C(Oc2ccc(C#N)c(C(F)(F)F)c2)C1=O (single isomer, unassigned; (+)) [Example 24, (+)-4-{1-[1-(3-Hydroxy-phenyl)-ethyl]-4,4-dimethyl-2-oxo-pyrrolidin-3-yloxy}-2-trifluoromethyl-benzonitrile] here?
**A.** Its melting point is 185.1 to 185.8 °C.

**Q.** What about the IC50 (androgen receptor) of the same compound?
**A.** The IC50 was 33 nM.

**Q.** And the IC50 (hAR; [1])?
**A.** The IC50 was 10 nM.

**Q.** With COc1cc(OC2C(=O)N(C(C)c3ccccc3)CC2(C)C)ccc1C#N (stereo not shown) [Example 110, 4-[4,4-Dimethyl-2-oxo-1-(1-phenyl-ethyl)-pyrrolidin-3-yloxy]-2-methoxy-benzonitrile] as the compound, how does the IC50 (androgen receptor; read-out: IC50) read?
**A.** Its IC50 is 126 nM.

**Q.** What about the IC50 (hAR; [1]) of the same compound?
**A.** Its IC50 is 87 nM.

**Q.** Which results are given for CC1(C)CN(Cc2nnc(-c3ccccc3O)o2)C(=O)C1Oc1ccc(C#N)c(C(F)(F)F)c1 (stereo not shown) [Example 112, 4-{1-[5-(2-Hydroxy-phenyl)-[1,3,4]oxadiazol-2-ylmethyl]-4,4-dimethyl-2-oxo-pyrrolidin-3-yloxy}-2-trifluoromethyl-benzonitrile]?
**A.** IC50 (androgen receptor; read-out: IC50): 198 nM; IC50 (hAR; [1]): 85 nM

**Q.** Which results are given for CC1(C)CN(Cc2nnc(-c3cccc(O)c3)o2)C(=O)C1Oc1ccc(C#N)c(C(F)(F)F)c1 (stereo not shown) [Example 113, 4-{1-[5-(3-Hydroxy-phenyl)-[1,3,4]oxadiazol-2-ylmethyl]-4,4-dimethyl-2-oxo-pyrrolidin-3-yloxy)-2-trifluoromethyl-benzonitrile]?
**A.** IC50 (androgen receptor; read-out: IC50): 651 nM; IC50 (hAR; [2]): 224 nM

**Q.** What does the source list for CC1(C)CN(Cc2nnc(-c3ccc(O)cc3)o2)C(=O)C1Oc1ccc(C#N)c(C(F)(F)F)c1 (stereo not shown) [Example 114, 4-{1-[5-(4-Hydroxy-phenyl)-[1,3,4]oxadiazol-2-ylmethyl]-4,4-dimethyl-2-oxo-pyrrolidin-3-yloxy}-2-trifluoromethyl-benzonitrile]?
**A.** IC50 (androgen receptor; read-out: IC50): 656 nM; IC50 (hAR; [1]): 41 nM

**Q.** Which results are given for CC1(C)CN(Cc2nnc(-c3cccc(F)c3)o2)C(=O)C1Oc1ccc(C#N)c(C(F)(F)F)c1 (stereo not shown) [Example 115, 4-{1-[5-(3-Fluoro-phenyl)-[1,3,4]oxadiazol-2-ylmethyl]-4,4-dimethyl-2-oxo-pyrrolidin-3-yloxy}-2-trifluoromethyl-benzonitrile]?
**A.** IC50 (androgen receptor; read-out: IC50): 415 nM; IC50 (hAR; [2]): 142 nM

**Q.** Which results are given for CC1(C)CN(Cc2nnc(-c3ccc(F)cc3)o2)C(=O)C1Oc1ccc(C#N)c(C(F)(F)F)c1 (stereo not shown) [Example 116, 4-{1-[5-(4-Fluoro-phenyl)-[1,3,4]oxadiazol-2-ylmethyl]-4,4-dimethyl-2-oxo-pyrrolidin-3-yloxy}-2-trifluoromethyl-benzonitrile]?
**A.** IC50 (androgen receptor; read-out: IC50): 369 nM; IC50 (hAR; [2]): 206 nM

**Q.** With Cc1ccc(-c2nnc(CN3CC(C)(C)C(Oc4ccc(C#N)c(C(F)(F)F)c4)C3=O)o2)s1 (stereo not shown) [Example 117, 4-{4,4-Dimethyl-1-[5-(5-methyl-thiophen-2-yl)-[1,3,4]oxadiazol-2-ylmethyl]-2-oxo-pyrrolidin-3-yloxy}-2-trifluoromethyl-benzonitrile] as the compound, how does the IC50 (androgen receptor; read-out: IC50) read?
**A.** Its IC50 is 117 nM.

**Q.** What about the IC50 (hAR; [2]) of the same compound?
**A.** Its IC50 is 259 nM.

**Q.** Which IC50 (androgen receptor; read-out: IC50) does the source give for COc1cccc(-c2nnc(CN3CC(C)(C)C(Oc4ccc(C#N)c(C(F)(F)F)c4)C3=O)o2)c1 (stereo not shown) [Example 118, 4-{1-[5-(3-Methoxy-phenyl)-[1,3,4]oxadiazol-2-ylmethyl]-4,4-dimethyl-2-oxo-pyrrolidin-3-yloxy}-2-trifluoromethyl-benzonitrile] here?
**A.** Its IC50 is 381 nM.

**Q.** What about the IC50 (hAR; [2]) of the same compound?
**A.** Its IC50 is 170 nM.

**Q.** Which IC50 (androgen receptor; read-out: IC50) does the source give for COc1ccc(-c2nnc(CN3CC(C)(C)C(Oc4ccc(C#N)c(C(F)(F)F)c4)C3=O)o2)cc1 (stereo not shown) [Example 119, 4-{1-[5-(4-Methoxy-phenyl)-[1,3,4]oxadiazol-2-ylmethyl]-4,4-dimethyl-2-oxo-pyrrolidin-3-yloxy}-2-trifluoromethyl-benzonitrile] here?
**A.** The IC50 was 199 nM.

**Q.** And the IC50 (hAR; [1])?
**A.** The IC50 was 80 nM.

**Q.** With COc1ccccc1-c1nnc(CN2CC(C)(C)C(Oc3ccc(C#N)c(C(F)(F)F)c3)C2=O)o1 (stereo not shown) [Example 121, 4-{1-[5-(2-Methoxy-phenyl)-[1,3,4]oxadiazol-2-ylmethyl]-4,4-dimethyl-2-oxo-pyrrolidin-3-yloxy}-2-trifluoromethyl-benzonitrile] as the compound, how does the IC50 (androgen receptor; read-out: IC50) read?
**A.** The IC50 was 166 nM.

**Q.** What about the IC50 (hAR; [2]) of the same compound?
**A.** The IC50 was 131 nM.

**Q.** With CC1(C)CN(Cc2nnc(-c3ccc(O)cc3O)o2)C(=O)C1Oc1ccc(C#N)c(C(F)(F)F)c1 (stereo not shown) [Example 123, 4-{1-[5-(2,4-Dihydroxy-phenyl)-[1,3,4]oxadiazol-2-ylmethyl]-4,4-dimethyl-2-oxo-pyrrolidin-3-yloxy}-2-trifluoromethyl-benzonitrile] as the compound, how does the IC50 (androgen receptor; read-out: IC50) read?
**A.** Its IC50 is 176 nM.

**Q.** And the IC50 (hAR; [1])?
**A.** Its IC50 is 61 nM.

**Q.** What does the source list for CC1(C)CN(Cc2nnc(-c3ccccc3Cl)o2)C(=O)C1Oc1ccc(C#N)c(C(F)(F)F)c1 (stereo not shown) [Example 127, 4-{1-(5-(2-Chloro-phenyl)-[1,3,4]oxadiazol-2-ylmethyl]-4,4-dimethyl-2-oxo-pyrrolidin-3-yloxy}-2-trifluoromethyl-benzonitrile]?
**A.** IC50 (androgen receptor; read-out: IC50): > 1000 nM; IC50 (hAR; [2]): 198 nM

**Q.** Which results are given for CC(c1nnc(-c2ccccc2O)o1)N1CC(C)(C)C(Oc2ccc(C#N)c(C(F)(F)F)c2)C1=O (stereo not shown) [Example 130, 4-(1-{1-[5-(2-hydroxy-phenyl)-[1,3,4]oxadiazol-2-yl]-ethyl}-4,4-dimethyl-2-oxo-pyrrolidin-3-yloxy)-2-trifluoromethyl-benzonitrile]?
**A.** IC50 (androgen receptor; read-out: IC50): 198 nM; IC50 (hAR; [1]): 85 nM

**Q.** Which “increase in spinal BMD” value (spinal BMD) does the source give for NCCCC(O)(P(=O)(O)O)P(=O)(O)O [alendronate] here?
**A.** Its value is no more than 11%.
